Reference: the supplement of paper PMC10883282
± gives the standard deviation of the averaged measurements.

System: KHOS-240S
Assay: relative viability vs DMSO control (72 h) (fraction); higher = more viable cells
Procedure, shortened: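 Sarcoma cell lines were plated in 384 wells to reach 80–90% confluence, treated after 24 h with 2.5 µl of serially diluted compound and held 72 h at 37 °C, 5% CO2. Relative viability was taken as percent growth from ATPLite readings, averaged over up to triplicate wells. The values were rescaled so that 1 marks full and 0 marks none.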

CC(C)N1CCN(Cc2cnc(-c3cc(-c4cccc5[nH]ccc45)cc4[nH]ncc34)o2)CC1 [Nemiralisib]
relative viability (0.00017 µM): 0.971 ± 0.016
relative viability (0.00051 µM): 0.972 ± 0.027
relative viability (0.00152 µM): 0.98 ± 0.026
relative viability (0.00457 µM): 0.971 ± 0.024
relative viability (0.01372 µM): 0.966 ± 0.017
relative viability (0.04115 µM): 0.939 ± 0.018
relative viability (0.1235 µM): 0.956 ± 0.027
relative viability (0.3704 µM): 0.927 ± 0.035
relative viability (1.111 µM): 0.93 ± 0.041
relative viability (3.333 µM): 0.759 ± 0.018
relative viability (10 µM): 0.455 ± 0.026

Cc1ccc(NC(=O)c2ccc(CN3CCN(C)CC3)cc2)cc1Nc1nc(-c2cccnc2)cs1 [Masitinib]
relative viability (0.00017 µM): 1.02 ± 0.03
relative viability (0.00051 µM): 1.03 ± 0.021
relative viability (0.00152 µM): 1.04 ± 0.017
relative viability (0.00457 µM): 1.03 ± 0.011
relative viability (0.01372 µM): 1.01 ± 0.051
relative viability (0.04115 µM): 1.01 ± 0.047
relative viability (0.1235 µM): 0.98133 ± 0.00047
relative viability (0.3704 µM): 0.862 ± 0.033
relative viability (1.111 µM): 0.758 ± 0.012
relative viability (3.333 µM): 0.474 ± 0.028
relative viability (10 µM): 0.109 ± 0.005

CCc1cc2c(cc1N1CCC(N3CCOCC3)CC1)C(C)(C)c1[nH]c3cc(C#N)ccc3c1C2=O [Alectinib]
relative viability (0.00017 µM): 1.06 ± 0.048
relative viability (0.00051 µM): 1.09 ± 0.075
relative viability (0.00152 µM): 1.09 ± 0.064
relative viability (0.00457 µM): 1.08 ± 0.066
relative viability (0.01372 µM): 1.06 ± 0.072
relative viability (0.04115 µM): 1.07 ± 0.069
relative viability (0.1235 µM): 1.05 ± 0.074
relative viability (0.3704 µM): 0.998 ± 0.079
relative viability (1.111 µM): 0.996 ± 0.063
relative viability (3.333 µM): 0.984 ± 0.054
relative viability (10 µM): 0.971 ± 0.073

COc1cc2nccc(Oc3ccc(NC(=O)Nc4cc(C)on4)c(Cl)c3)c2cc1OC [Tivozanib]
relative viability (0.00017 µM): 1.07 ± 0.061
relative viability (0.00051 µM): 1.07 ± 0.061
relative viability (0.00152 µM): 1.09 ± 0.071
relative viability (0.00457 µM): 1.09 ± 0.059
relative viability (0.01372 µM): 1.08 ± 0.025
relative viability (0.04115 µM): 1.07 ± 0.041
relative viability (0.1235 µM): 1.06 ± 0.018
relative viability (0.3704 µM): 1.045 ± 0.0038
relative viability (1.111 µM): 1.02 ± 0.042
relative viability (3.333 µM): 0.908 ± 0.027
relative viability (10 µM): 0.561 ± 0.02
